Values quoted from earlier work, collected in paper PMC8698672, “Selective Anticancer and Antimicrobial Metallodrugs Based on Gold(III) Dithiocarbamate Complexes” (Biomedicines, 2021).

Tested on: Caco-2/TC7 tumor cells
Conditions: reference drugs, Caco-2 tumor cells; ref [27]; cited from earlier work

Question: With CC(=O)OC[C@H]1O[C@@H]([S-])[C@H](OC(C)=O)[C@@H](OC(C)=O)[C@@H]1OC(C)=O.CCP(CC)CC.[Au+] [auranofin, 2,3,4,6-tetra-o-acetyl-1-thio-b-D-glucopyranosato-(S)-triethylphosphine gold(I)] as the compound, how does the IC50 read?
Answer: Its IC50 is 2.1 ± 0.4 µM.
